Earlier results, collected in US20190210972A1, “METHODS OF RESOLVING RACEMIC MIXTURE TO OBTAIN (-)-HUPERZINE A” (AMPHASTAR NANJING PHARMACEUTICALS INC., priority 2014, published 2019).

Tested on: patients with Alzheimer's disease
Details: double-blind, placebo-controlled

## C/C=C1\C2C=C(C)C[C@]1(N)c1ccc(=O)[nH]c1C2 (single isomer, unassigned; (-)) [(−)-Huperzine A]
  cognitive function and quality of life of trial participants: Significant improvements
